Laboratory results taken from PubChem BioAssay AID248 (DTP/NCI, 2004).
Values joined by “and” are separate entries in the source; they are usually repeats but may differ in a detail not shown here. Identical values can stand only once. Inconclusive results and toxic doses are left out.

Test system: L1210 leukemia ip in BDF1 mice, survival T/C
Assay: NCI In Vivo Anticancer Drug Screen. Data for tumor model L1210 Leukemia (intraperitoneal) in B6D2F1 (BDF1) mice
Conditions: endpoint: mean survival time, higher = longer survival
In short: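 Mice bearing the transplanted tumor received compound or vehicle. Survival of the treated group was divided by that of the vehicle-treated control group to give the ratio.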

[1] = dose: 100.0 mg/kg/injection, schedule: Q04DX003 (ip), vehicle: Klucel (hydroxypropylcellulose) (HPC)
[2] = dose: 200.0 mg/kg/injection, schedule: Q04DX003 (ip), vehicle: Klucel (hydroxypropylcellulose) (HPC)
[3] = dose: 400.0 mg/kg/injection, schedule: Q04DX003 (ip), vehicle: Klucel (hydroxypropylcellulose) (HPC)
[4] = dose: 100.0 mg/kg/injection, schedule: Q01DX009 (sc), vehicle: olive oil, sesame oil, peanut oil
[5] = dose: 100.0 mg/kg/injection, schedule: Q04DX003 (sc), vehicle: olive oil, sesame oil, peanut oil
[6] = dose: 200.0 mg/kg/injection, schedule: Q01DX009 (sc), vehicle: olive oil, sesame oil, peanut oil
[7] = dose: 200.0 mg/kg/injection, schedule: Q04DX003 (sc), vehicle: olive oil, sesame oil, peanut oil
[8] = dose: 400.0 mg/kg/injection, schedule: Q04DX003 (sc), vehicle: olive oil, sesame oil, peanut oil
[9] = dose: 50.0 mg/kg/injection, schedule: Q04DX003 (ip), vehicle: saline
[10] = dose: 100.0 mg/kg/injection, schedule: Q01DX009 (ip), vehicle: saline
[11] = dose: 100.0 mg/kg/injection, schedule: Q04DX003 (ip), vehicle: saline
[12] = dose: 200.0 mg/kg/injection, schedule: Q01DX009 (ip), vehicle: saline
[13] = dose: 400.0 mg/kg/injection, schedule: Q01DX009 (ip), vehicle: saline

For CCOC(CN=Cc1cc(C)c2[nH]c3ccc(OC)cc3c2c1C)OCC, the T/C (dose: 100.0 mg/kg/injection, schedule: Q01DX001 (ip), vehicle: other) was 96 % of control, the T/C [1] was 98 % of control and the T/C (dose: 200.0 mg/kg/injection, schedule: Q01DX001 (ip), vehicle: other) was 102 % of control. For the same compound, the T/C [2] was 96 % of control, the T/C (dose: 400.0 mg/kg/injection, schedule: Q01DX001 (ip), vehicle: other) was 98 % of control and the T/C [3] was 96 % of control.
With O=C1C2CCCCC1C(N1CCCC1)CC2 (stereo not given) the T/C [4] was 98 % of control, the T/C [5] was 96 % of control and the T/C [6] was 104 % of control. The T/C [7] was 100 % of control and the T/C [8] was 111 % of control.
In the case of O=C(O)c1cc(Br)c(C(=O)O)cc1Br, the T/C (dose: 100.0 mg/kg/injection, schedule: Q01DX001 (ip), vehicle: saline) was 100 % of control, the T/C (dose: 200.0 mg/kg/injection, schedule: Q01DX001 (ip), vehicle: saline) was 102 % of control and the T/C (dose: 400.0 mg/kg/injection, schedule: Q01DX001 (ip), vehicle: saline) was 96 % of control.
For CC(=O)NCC[N+](C)(C)C, the T/C (dose: 25.0 mg/kg/injection, schedule: Q01DX009 (ip), vehicle: saline) was 100 % of control, the T/C (dose: 25.0 mg/kg/injection, schedule: Q04DX003 (ip), vehicle: saline) was 97 % of control and the T/C (dose: 50.0 mg/kg/injection, schedule: Q01DX009 (ip), vehicle: saline) was 100 % of control. The T/C [9] was 95 % of control, the T/C [10] was 105 % of control and the T/C [11] was 95 % of control.
In the case of CN(C)c1ccc(N=Nc2ccc(S(=O)(=O)O)cc2)cc1, the T/C (dose: 100.0 mg/kg/injection, schedule: Q04DX002 (ip), vehicle: Klucel (hydroxypropylcellulose) (HPC)) was 92 % of control, the T/C (dose: 200.0 mg/kg/injection, schedule: Q04DX002 (ip), vehicle: Klucel (hydroxypropylcellulose) (HPC)) was 103 % of control and the T/C (dose: 400.0 mg/kg/injection, schedule: Q04DX002 (ip), vehicle: Klucel (hydroxypropylcellulose) (HPC)) was 92 % of control.
O=C1OC2CC3CCC2C13 (stereo not given) was tested, and the T/C (dose: 6.25 mg/kg/injection, schedule: Q01DX001 (ip), vehicle: saline) was 96 % of control, the T/C (dose: 12.5 mg/kg/injection, schedule: Q01DX001 (ip), vehicle: saline) was 96 % of control and the T/C (dose: 25.0 mg/kg/injection, schedule: Q01DX001 (ip), vehicle: saline) was 98 % of control.
In the case of O=C1NC(Cc2ccc(O)cc2)C(=O)N1c1ccccc1O (stereo not given), the T/C (dose: 100.0 mg/kg/injection, schedule: Q01DX001 (ip), vehicle: carboxymethylcellulose (CMC)) was 96 % of control, the T/C (dose: 200.0 mg/kg/injection, schedule: Q01DX001 (ip), vehicle: carboxymethylcellulose (CMC)) was 96 % of control and the T/C (dose: 400.0 mg/kg/injection, schedule: Q01DX001 (ip), vehicle: carboxymethylcellulose (CMC)) was 94 % of control.
For Cc1c2cnccc2c(C)c2c1c1ccccc1n2C(C)C, the T/C (dose: 37.5 mg/kg/injection, schedule: Q04DX003 (ip), vehicle: saline) was 100 % of control, the T/C (dose: 62.5 mg/kg/injection, schedule: Q01DX009 (ip), vehicle: saline with Tween-80) was 110 % of control and the T/C (dose: 75.0 mg/kg/injection, schedule: Q04DX003 (ip), vehicle: saline) was 101 % of control. For the same compound, the T/C (dose: 150.0 mg/kg/injection, schedule: Q04DX003 (ip), vehicle: saline) was 104 % of control and the T/C (dose: 300.0 mg/kg/injection, schedule: Q04DX003 (ip), vehicle: saline) was 124 % of control.
For O=S(=O)(C1CC1c1ccccc1)N(c1ccccc1)c1ccccc1 (stereo not given), the T/C (dose: 100.0 mg/kg/injection, schedule: Q01DX001 (ip), vehicle: Klucel (hydroxypropylcellulose) (HPC)) was 94 % of control, the T/C [1] was 93 % of control and the T/C (dose: 200.0 mg/kg/injection, schedule: Q01DX001 (ip), vehicle: Klucel (hydroxypropylcellulose) (HPC)) was 100 % of control. The T/C [2] was 93 % of control, the T/C (dose: 400.0 mg/kg/injection, schedule: Q01DX001 (ip), vehicle: Klucel (hydroxypropylcellulose) (HPC)) was 97 % of control and the T/C [3] was 93 % of control.
COc1cc(OC)c(-c2nc3ccccc3c(=O)o2)cc1OC was tested, and the T/C (dose: 75.0 mg/kg/injection, schedule: Q01DX009 (ip), vehicle: Klucel (hydroxypropylcellulose) (HPC)) was 93 % of control, the T/C (dose: 150.0 mg/kg/injection, schedule: Q01DX009 (ip), vehicle: Klucel (hydroxypropylcellulose) (HPC)) was 97 % of control and the T/C (dose: 300.0 mg/kg/injection, schedule: Q01DX009 (ip), vehicle: Klucel (hydroxypropylcellulose) (HPC)) was 101 % of control.
For Nc1ncnc(N)c1NC(=O)c1ccc(Cl)c(Cl)c1, the T/C (dose: 75.0 mg/kg/injection, schedule: Q01DX001 (ip), vehicle: saline with Tween-80) was 102 % of control, the T/C (dose: 150.0 mg/kg/injection, schedule: Q01DX001 (ip), vehicle: saline with Tween-80) was 98 % of control and the T/C (dose: 300.0 mg/kg/injection, schedule: Q01DX001 (ip), vehicle: saline with Tween-80) was 96 % of control.
CCCCCCCCOP(=O)(N1CC1)N1CC1 was tested, and the T/C (dose: 1.0 mg/kg/injection, schedule: Q01DX015 (ip), vehicle: saline) was 94 % of control, the T/C (dose: 2.0 mg/kg/injection, schedule: Q01DX015 (ip), vehicle: saline) was 95 % of control and the T/C (dose: 4.0 mg/kg/injection, schedule: Q01DX015 (ip), vehicle: saline) was 97 % of control. The T/C (dose: 8.0 mg/kg/injection, schedule: Q01DX001 (ip), vehicle: saline) was 119 % of control, the T/C (dose: 8.2 mg/kg/injection, schedule: Q01DX015 (ip), vehicle: saline) was 163 % of control and the T/C (dose: 10.5 mg/kg/injection, schedule: Q01DX015 (ip), vehicle: saline) was 165 % of control and 166 % of control. The T/C (dose: 12.4 mg/kg/injection, schedule: Q01DX015 (ip), vehicle: saline) was 204 % of control, the T/C (dose: 16.0 mg/kg/injection, schedule: Q01DX015 (ip), vehicle: saline) was 209 % of control and the T/C (dose: 18.0 mg/kg/injection, schedule: Q01DX015 (ip), vehicle: saline) was 235 % of control. For the same compound, the T/C (dose: 18.6 mg/kg/injection, schedule: Q01DX015 (ip), vehicle: saline) was 214 % of control, the T/C (dose: 28.0 mg/kg/injection, schedule: Q01DX001 (ip), vehicle: saline) was 153 % of control and the T/C (dose: 33.5 mg/kg/injection, schedule: Q01DX015 (ip), vehicle: saline) was 207 % of control. The T/C (dose: 44.4 mg/kg/injection, schedule: Q01DX001 (ip), vehicle: saline) was 150 % of control, the T/C (dose: 50.0 mg/kg/injection, schedule: Q01DX015 (ip), vehicle: saline) was 92 % of control and the T/C (dose: 66.7 mg/kg/injection, schedule: Q01DX001 (ip), vehicle: saline) was 157 % of control and 170 % of control. The T/C (dose: 150.0 mg/kg/injection, schedule: Q01DX001 (ip), vehicle: saline) was 213 % of control.
With C=CCCN1CCCC1 the T/C (dose: 1.5 mg/kg/injection, schedule: Q01DX009 (ip), vehicle: saline with Tween-80) was 100 % of control, the T/C (dose: 3.0 mg/kg/injection, schedule: Q01DX009 (ip), vehicle: saline with Tween-80) was 93 % of control and the T/C (dose: 6.0 mg/kg/injection, schedule: Q01DX009 (ip), vehicle: saline with Tween-80) was 103 % of control. The T/C (dose: 8.0 mg/kg/injection, schedule: Q04DX003 (ip), vehicle: saline with Tween-80) was 97 % of control and 105 % of control, the T/C (dose: 12.0 mg/kg/injection, schedule: Q01DX009 (ip), vehicle: saline with Tween-80) was 98 % of control and the T/C (dose: 12.0 mg/kg/injection, schedule: Q04DX003 (ip), vehicle: saline with Tween-80) was 100 % of control and 105 % of control. For the same compound, the T/C (dose: 18.0 mg/kg/injection, schedule: Q04DX003 (ip), vehicle: saline with Tween-80) was 103 % of control and 110 % of control, the T/C (dose: 25.0 mg/kg/injection, schedule: Q01DX009 (ip), vehicle: saline with Tween-80) was 88 % of control and the T/C (dose: 25.0 mg/kg/injection, schedule: Q04DX003 (ip), vehicle: saline with Tween-80) was 103 % of control. For the same compound, the T/C (dose: 50.0 mg/kg/injection, schedule: Q04DX003 (ip), vehicle: saline with Tween-80) was 109 % of control.
For CC1CC=C(C2CC(C)CC(N(C)C)C2=N)CC1 (stereo not given), the T/C [4] was 101 % of control, the T/C [5] was 108 % of control and the T/C [6] was 92 % of control. For the same compound, the T/C [7] was 103 % of control and the T/C [8] was 106 % of control.
With CCOP(=O)(CC(=O)OC)OCC the T/C [9] was 102 % of control, the T/C [10] was 103 % of control and the T/C [11] was 100 % of control. For the same compound, the T/C [12] was 101 % of control, the T/C (dose: 200.0 mg/kg/injection, schedule: Q04DX003 (ip), vehicle: saline) was 102 % of control and the T/C [13] was 88 % of control. For the same compound, the T/C (dose: 400.0 mg/kg/injection, schedule: Q04DX003 (ip), vehicle: saline) was 102 % of control.
CSc1ncnc2c1ncn2NC(=O)C1CCC(=O)N1 (stereo not given) was tested, and the T/C [10] was 104 % of control, the T/C [1] was 107 % of control and the T/C [12] was 104 % of control. The T/C [2] was 100 % of control, the T/C [13] was 106 % of control and the T/C [3] was 109 % of control.
